Results: article PMC6120666 (The EMBO Journal, 2018)

Columns and labels:
Test in all cases: Drug affinity chromatography with c-ponatinib and LC-MS/MS (ponatinib interactome)
Assay type in all cases: binding
[1] = biological target: T1, proteins of U2OS cell lysate (Homo sapiens, UniProt P04792); conditions: HSPB1, Heat shock protein beta-1
T1 construct: Proteins enriched by c-ponatinib from U2OS cell lysate; endogenous in cells; host or cells: U2OS cell lysate
Outline: (§1)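 Proteins were identified by nano-UPLC–MS/MS after elution with formic acid and trypsin digestion. They were captured from U2OS lysate (2 mg protein per pulldown, NP-40 buffer) on amine-coupled NHS beads during a 2 h incubation at 4 °C.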

[2] = biological target: T2, proteins of U2OS cell lysate (Homo sapiens, UniProt P07948); conditions: LYN, Tyrosine-protein kinase Lyn
T2 construct: Proteins enriched by c-ponatinib from U2OS cell lysate; endogenous in cells; host or cells: U2OS cell lysate
Outline: as §1

[3] = biological target: T3, proteins of U2OS cell lysate (Homo sapiens, UniProt P11142); conditions: HSPA8, Heat shock cognate 71 kDa protein
T3 construct: Proteins enriched by c-ponatinib from U2OS cell lysate; endogenous in cells; host or cells: U2OS cell lysate
Outline: as §1

[4] = biological target: T4, proteins of U2OS cell lysate (Homo sapiens, UniProt P35232); conditions: PHB, Prohibitin
T4 construct: Proteins enriched by c-ponatinib from U2OS cell lysate; endogenous in cells; host or cells: U2OS cell lysate
Outline: as §1

[5] = biological target: T5, proteins of U2OS cell lysate (Homo sapiens, UniProt P40939); conditions: HADHA, Trifunctional enzyme subunit alpha, mitochondrial
T5 construct: Proteins enriched by c-ponatinib from U2OS cell lysate; endogenous in cells; host or cells: U2OS cell lysate
Outline: as §1

[6] = biological target: T6, proteins of U2OS cell lysate (Homo sapiens, UniProt P61964); conditions: WDR5, WD repeat-containing protein 5
T6 construct: Proteins enriched by c-ponatinib from U2OS cell lysate; endogenous in cells; host or cells: U2OS cell lysate
Outline: as §1

[7] = biological target: T7, proteins of U2OS cell lysate (Homo sapiens, UniProt P63104); conditions: YWHAZ, 14-3-3 protein zeta/delta
T7 construct: Proteins enriched by c-ponatinib from U2OS cell lysate; endogenous in cells; host or cells: U2OS cell lysate
Outline: as §1

[8] = biological target: T8, proteins of U2OS cell lysate (Homo sapiens, UniProt Q14165); conditions: MLEC, Malectin
T8 construct: Proteins enriched by c-ponatinib from U2OS cell lysate; endogenous in cells; host or cells: U2OS cell lysate
Outline: as §1

[9] = biological target: T9, proteins of U2OS cell lysate (Homo sapiens, UniProt Q14566); conditions: MCM6, DNA replication licensing factor MCM6
T9 construct: Proteins enriched by c-ponatinib from U2OS cell lysate; endogenous in cells; host or cells: U2OS cell lysate
Outline: as §1

[10] = biological target: T10, proteins of U2OS cell lysate (Homo sapiens, UniProt Q15750); conditions: TAB1, TGF-beta-activated kinase 1 and MAP3K7-binding protein 1
T10 construct: Proteins enriched by c-ponatinib from U2OS cell lysate; endogenous in cells; host or cells: U2OS cell lysate
Outline: as §1

[11] = biological target: T11, proteins of U2OS cell lysate (Homo sapiens, UniProt Q8TEX9); conditions: IPO4, Importin-4
T11 construct: Proteins enriched by c-ponatinib from U2OS cell lysate; endogenous in cells; host or cells: U2OS cell lysate
Outline: as §1

[12] = biological target: T12, proteins of U2OS cell lysate (Homo sapiens, UniProt Q9BSJ8); conditions: ESYT1, Extended synaptotagmin-1
T12 construct: Proteins enriched by c-ponatinib from U2OS cell lysate; endogenous in cells; host or cells: U2OS cell lysate
Outline: as §1

[13] = biological target: T13, proteins of U2OS cell lysate (Homo sapiens, UniProt P25787); conditions: captured protein PSMA2, Rank 214
T13 construct: Proteins enriched by c-ponatinib from U2OS cell lysate; endogenous in cells; host or cells: U2OS cell lysate
Outline: as §1

[14] = biological target: T14, proteins of U2OS cell lysate (Homo sapiens, UniProt Q9UHX1); conditions: captured protein PUF60, Rank 203
T14 construct: Proteins enriched by c-ponatinib from U2OS cell lysate; endogenous in cells; host or cells: U2OS cell lysate
Outline: as §1

T8 sequence (Q14165 29-292): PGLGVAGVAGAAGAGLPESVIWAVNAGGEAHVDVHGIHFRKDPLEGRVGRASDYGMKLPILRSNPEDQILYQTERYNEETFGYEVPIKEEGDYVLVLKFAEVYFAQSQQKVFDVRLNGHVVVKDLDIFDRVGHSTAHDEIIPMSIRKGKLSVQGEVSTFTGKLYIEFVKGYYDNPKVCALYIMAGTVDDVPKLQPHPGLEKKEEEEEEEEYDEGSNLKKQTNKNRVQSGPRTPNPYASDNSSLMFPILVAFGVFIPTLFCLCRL
T12 sequence (Q9BSJ8 whole entry): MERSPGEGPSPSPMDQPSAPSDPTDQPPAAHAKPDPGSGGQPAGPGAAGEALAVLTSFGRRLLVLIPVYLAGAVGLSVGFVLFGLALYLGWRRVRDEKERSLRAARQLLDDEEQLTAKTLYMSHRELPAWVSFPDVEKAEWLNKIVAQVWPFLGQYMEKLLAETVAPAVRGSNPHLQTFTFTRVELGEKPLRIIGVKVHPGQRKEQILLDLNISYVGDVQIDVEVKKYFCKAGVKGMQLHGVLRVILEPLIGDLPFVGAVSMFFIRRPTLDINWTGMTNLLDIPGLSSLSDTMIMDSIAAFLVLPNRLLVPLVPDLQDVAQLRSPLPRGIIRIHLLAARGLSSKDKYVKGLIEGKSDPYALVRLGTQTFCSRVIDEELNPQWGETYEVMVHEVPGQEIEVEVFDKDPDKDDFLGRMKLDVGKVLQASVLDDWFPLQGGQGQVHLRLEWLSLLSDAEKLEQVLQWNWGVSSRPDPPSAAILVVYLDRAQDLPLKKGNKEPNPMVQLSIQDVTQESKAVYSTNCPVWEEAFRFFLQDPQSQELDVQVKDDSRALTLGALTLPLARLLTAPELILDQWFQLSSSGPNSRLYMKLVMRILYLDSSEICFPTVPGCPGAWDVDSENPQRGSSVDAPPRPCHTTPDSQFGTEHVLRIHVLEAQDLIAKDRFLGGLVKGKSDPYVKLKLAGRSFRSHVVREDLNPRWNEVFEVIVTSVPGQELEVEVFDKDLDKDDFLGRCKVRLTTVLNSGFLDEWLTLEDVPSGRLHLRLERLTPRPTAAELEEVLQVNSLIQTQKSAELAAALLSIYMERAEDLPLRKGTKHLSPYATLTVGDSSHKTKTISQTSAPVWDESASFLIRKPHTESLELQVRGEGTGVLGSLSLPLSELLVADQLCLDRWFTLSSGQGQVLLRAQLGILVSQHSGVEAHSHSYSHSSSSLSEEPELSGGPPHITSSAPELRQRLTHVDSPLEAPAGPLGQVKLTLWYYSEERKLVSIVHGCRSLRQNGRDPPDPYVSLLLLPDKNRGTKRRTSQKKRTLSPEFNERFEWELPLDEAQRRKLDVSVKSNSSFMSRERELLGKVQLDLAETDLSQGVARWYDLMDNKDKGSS
T2 sequence (P07948 whole entry): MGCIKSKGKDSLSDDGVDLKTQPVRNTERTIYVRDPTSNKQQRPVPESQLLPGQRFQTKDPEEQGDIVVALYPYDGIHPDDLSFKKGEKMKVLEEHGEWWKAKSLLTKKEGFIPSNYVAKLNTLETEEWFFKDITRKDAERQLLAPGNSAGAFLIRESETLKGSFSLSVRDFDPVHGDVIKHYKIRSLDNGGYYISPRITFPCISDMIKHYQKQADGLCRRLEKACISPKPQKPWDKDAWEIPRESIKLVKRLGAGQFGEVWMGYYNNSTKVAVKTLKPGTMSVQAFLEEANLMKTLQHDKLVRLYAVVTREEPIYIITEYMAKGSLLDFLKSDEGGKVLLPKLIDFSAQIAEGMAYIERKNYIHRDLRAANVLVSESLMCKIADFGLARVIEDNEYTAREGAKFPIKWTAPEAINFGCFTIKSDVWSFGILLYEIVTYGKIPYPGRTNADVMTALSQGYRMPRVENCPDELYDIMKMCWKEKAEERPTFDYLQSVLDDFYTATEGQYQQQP
T3 sequence (P11142 whole entry): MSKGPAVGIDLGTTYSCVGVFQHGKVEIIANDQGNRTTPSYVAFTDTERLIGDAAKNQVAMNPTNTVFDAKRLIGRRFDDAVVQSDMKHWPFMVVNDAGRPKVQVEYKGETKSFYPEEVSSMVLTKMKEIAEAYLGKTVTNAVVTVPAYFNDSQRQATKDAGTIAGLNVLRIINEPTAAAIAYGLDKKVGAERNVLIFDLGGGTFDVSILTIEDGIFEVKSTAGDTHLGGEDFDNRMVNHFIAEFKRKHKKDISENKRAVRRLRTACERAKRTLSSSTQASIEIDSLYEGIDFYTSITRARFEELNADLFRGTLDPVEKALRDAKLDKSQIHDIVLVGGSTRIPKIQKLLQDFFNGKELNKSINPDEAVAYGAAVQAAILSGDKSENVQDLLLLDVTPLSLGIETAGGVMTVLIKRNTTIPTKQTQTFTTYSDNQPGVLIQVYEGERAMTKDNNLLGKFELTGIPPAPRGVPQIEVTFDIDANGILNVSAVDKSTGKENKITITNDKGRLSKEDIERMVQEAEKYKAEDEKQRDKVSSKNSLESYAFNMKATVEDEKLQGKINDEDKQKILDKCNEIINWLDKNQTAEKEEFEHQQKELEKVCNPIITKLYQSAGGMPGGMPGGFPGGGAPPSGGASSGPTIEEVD
T13 sequence (P25787 whole entry): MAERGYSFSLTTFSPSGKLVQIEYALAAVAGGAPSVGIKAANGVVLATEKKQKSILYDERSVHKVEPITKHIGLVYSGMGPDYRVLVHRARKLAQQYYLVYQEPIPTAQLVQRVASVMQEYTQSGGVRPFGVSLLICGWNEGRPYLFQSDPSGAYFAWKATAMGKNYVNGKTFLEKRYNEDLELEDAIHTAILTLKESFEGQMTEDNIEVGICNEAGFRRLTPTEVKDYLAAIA
T1 sequence (P04792 whole entry): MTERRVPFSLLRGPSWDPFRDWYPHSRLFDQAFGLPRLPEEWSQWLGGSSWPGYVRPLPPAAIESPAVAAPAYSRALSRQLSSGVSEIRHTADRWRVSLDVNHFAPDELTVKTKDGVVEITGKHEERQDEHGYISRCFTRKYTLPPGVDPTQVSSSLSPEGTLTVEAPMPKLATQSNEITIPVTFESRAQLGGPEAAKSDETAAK
T11 sequence (Q8TEX9 whole entry): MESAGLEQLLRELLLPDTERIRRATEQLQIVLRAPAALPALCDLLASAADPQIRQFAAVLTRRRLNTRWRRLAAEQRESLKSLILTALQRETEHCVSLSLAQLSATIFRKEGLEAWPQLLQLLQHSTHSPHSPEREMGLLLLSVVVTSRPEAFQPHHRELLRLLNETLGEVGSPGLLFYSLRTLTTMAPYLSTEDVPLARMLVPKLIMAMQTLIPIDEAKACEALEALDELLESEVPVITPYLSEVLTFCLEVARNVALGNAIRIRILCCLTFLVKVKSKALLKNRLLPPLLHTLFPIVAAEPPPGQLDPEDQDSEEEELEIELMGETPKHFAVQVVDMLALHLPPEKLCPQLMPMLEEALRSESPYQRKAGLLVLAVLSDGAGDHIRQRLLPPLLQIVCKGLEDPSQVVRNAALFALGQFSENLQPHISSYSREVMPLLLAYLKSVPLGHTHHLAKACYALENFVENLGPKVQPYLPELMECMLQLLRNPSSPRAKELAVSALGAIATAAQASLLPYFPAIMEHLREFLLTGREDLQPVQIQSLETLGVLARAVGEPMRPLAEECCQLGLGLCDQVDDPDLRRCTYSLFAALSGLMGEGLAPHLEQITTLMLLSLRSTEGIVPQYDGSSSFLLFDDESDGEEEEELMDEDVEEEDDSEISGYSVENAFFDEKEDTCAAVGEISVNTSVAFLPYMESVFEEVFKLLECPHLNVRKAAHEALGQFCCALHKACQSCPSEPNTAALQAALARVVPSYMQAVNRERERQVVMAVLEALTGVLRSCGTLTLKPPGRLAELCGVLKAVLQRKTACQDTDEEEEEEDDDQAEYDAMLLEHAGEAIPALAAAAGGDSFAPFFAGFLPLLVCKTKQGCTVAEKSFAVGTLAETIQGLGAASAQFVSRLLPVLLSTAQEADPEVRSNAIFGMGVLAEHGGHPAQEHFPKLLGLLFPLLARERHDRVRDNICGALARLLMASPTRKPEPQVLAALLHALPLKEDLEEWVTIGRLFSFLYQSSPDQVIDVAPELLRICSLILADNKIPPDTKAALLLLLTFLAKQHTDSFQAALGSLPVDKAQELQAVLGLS
T10 sequence (Q15750 whole entry): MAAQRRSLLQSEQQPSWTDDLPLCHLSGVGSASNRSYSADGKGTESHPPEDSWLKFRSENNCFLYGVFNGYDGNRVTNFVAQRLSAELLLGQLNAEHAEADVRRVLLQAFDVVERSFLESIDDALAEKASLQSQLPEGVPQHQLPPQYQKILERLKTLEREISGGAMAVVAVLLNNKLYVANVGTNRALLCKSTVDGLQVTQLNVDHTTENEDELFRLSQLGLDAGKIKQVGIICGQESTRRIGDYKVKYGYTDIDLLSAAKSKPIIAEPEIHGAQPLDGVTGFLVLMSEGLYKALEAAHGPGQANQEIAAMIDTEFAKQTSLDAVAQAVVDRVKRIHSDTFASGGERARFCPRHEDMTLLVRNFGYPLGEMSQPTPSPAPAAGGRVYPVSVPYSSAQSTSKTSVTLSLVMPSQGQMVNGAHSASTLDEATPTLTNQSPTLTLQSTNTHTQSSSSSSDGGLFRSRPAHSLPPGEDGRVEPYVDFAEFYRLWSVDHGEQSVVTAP
T7 sequence (P63104 whole entry): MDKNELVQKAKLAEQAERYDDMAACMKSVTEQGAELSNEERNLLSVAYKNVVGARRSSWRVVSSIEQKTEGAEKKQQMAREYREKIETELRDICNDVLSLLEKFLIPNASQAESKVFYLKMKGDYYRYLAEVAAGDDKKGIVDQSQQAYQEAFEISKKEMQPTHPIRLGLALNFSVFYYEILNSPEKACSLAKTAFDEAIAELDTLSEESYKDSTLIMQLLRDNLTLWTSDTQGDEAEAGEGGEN

Row | SMILES | Average LFQ PON_WT [1] | Average LFQ PON_WT [2] | Average LFQ PON_WT [3] | Average LFQ PON_WT [4] | Average LFQ PON_WT [5] | Average LFQ PON_WT [6] | Average LFQ PON_WT [7] | Average LFQ PON_WT [8] | Average LFQ PON_WT [9] | Average LFQ PON_WT [10] | Average LFQ PON_WT [11] | Average LFQ PON_WT [12] | Average LFQ intensity [13] | Average LFQ intensity [14]
1 | Cc1ccc(C(=O)Nc2ccc(CN3CCN(C)CC3)c(C(F)(F)F)c2)cc1C#Cc1cnc2cccnn12 [PON] | 25.081 | 23.7419 | 27.1657 | 29.1615 | 23.258 | 20.2851 | 24.9214 | 19.5713 | 19.2204 | 26.3342 | 20.7176 | 18.8901 | – | –
2 | Cc1ccc(C(=O)Nc2ccc(CN3CCN(CCCN)CC3)c(C(F)(F)F)c2)cc1C#Cc1cnc2cccnn12 [c-ponatinib, reference compound] | – | – | – | – | – | – | – | – | – | – | – | – | 21.6987 | 21.804
